Assay results: ChEMBL document CHEMBL3885881, “DrugMatrix”
Values joined by “and” are separate entries in the source; they are usually repeats but may differ in a detail not shown here. Equal entries are not always repeated.

Species on record: Rattus norvegicus
Assay: DrugMatrix - Regimen: Daily Repeat
Assay type: toxicity, organism-based, Sprague-Dawley
Set-up: regimen Daily Repeat, gender Male, age 6-8 weeks
Conditions: in vivo, po, route oral GAVAGE, vehicle .5 % CMC; for ABSOLUTE BASOPHIL / ABSOLUTE LYMPHOCYTE / ABSOLUTE MONOCYTE / ABSOLUTE SEGMENTED NEUTROPHIL / BASOPHIL / EOSINOPHIL / ERYTHROCYTE COUNT / HEMATOCRIT / HEMOGLOBIN / LEUKOCYTE COUNT / LYMPHOCYTE / MEAN CORPUSCULAR HEMOGLOBIN / MEAN CORPUSCULAR HEMOGLOBIN CONCENTRATION / MEAN CORPUSCULAR VOLUME / MONOCYTE / NEUTROPHIL / PLATELET COUNT / ABSOLUTE EOSINOPHIL / NUCLEATED RED BLOOD CELLS: tissue Blood; for ALANINE AMINOTRANSFERASE / ALBUMIN / ALKALINE PHOSPHATASE / ASPARTATE AMINOTRANSFERASE / BLOOD UREA NITROGEN / CARBON DIOXIDE / CHLORIDE / CHOLESTEROL / CREATINE PHOSPHOKINASE / CREATININE / GLUCOSE / LIPASE / PHOSPHORUS / POTASSIUM / SODIUM / TOTAL BILIRUBIN / TOTAL PROTEIN / URIC ACID / LACTATE DEHYDROGENASE: tissue Plasma
[1] = 0 mg/kg, 72 h, dose level Control, time 3 day
[2] = 0 mg/kg, 120 h, dose level Control, time 5 day
[3] = 11 mg/kg, 72 h, dose level Low, time 3 day
[4] = 11 mg/kg, 120 h, dose level Low, time 5 day

SMILES: COc1ccc2c3c1O[C@H]1C[C@@H](O)C=C[C@@]31CCN(C)C2 [GALANTAMINE]
- ABSOLUTE BASOPHIL [1]: 0 CELLS/uL
- ABSOLUTE LYMPHOCYTE [1]: 15937.67 CELLS/uL and 12269.67 CELLS/uL
- ABSOLUTE MONOCYTE [1]: 138.33 CELLS/uL and 160.33 CELLS/uL
- ABSOLUTE SEGMENTED NEUTROPHIL [1]: 1443 CELLS/uL and 970 CELLS/uL
- BASOPHIL [1]: 0%
- EOSINOPHIL [1]: 0.33% and 0%
- ERYTHROCYTE COUNT [1]: 5.45 x10E6/uL and 5.76 x10E6/uL
- HEMATOCRIT [1]: 34.43% and 36.57%
- HEMOGLOBIN [1]: 13.38 G/DL and 14.22 G/DL
- LEUKOCYTE COUNT [1]: 17.57 x10E3/uL and 13.4 x10E3/uL
- LYMPHOCYTE [1]: 90.33% and 91.67%
- MEAN CORPUSCULAR HEMOGLOBIN [1]: 24.6 pg and 24.67 pg
- MEAN CORPUSCULAR HEMOGLOBIN CONCENTRATION [1]: 38.88 G/DL and 38.85 G/DL
- MEAN CORPUSCULAR VOLUME [1]: 63.27 fL and 63.52 fL
- MONOCYTE [1]: 0.83% and 1.17%
- NEUTROPHIL [1]: 8.5% and 7.17%
- PLATELET COUNT [1]: 1298 x10E3/uL and 1250.83 x10E3/uL
- ALANINE AMINOTRANSFERASE [1]: 47.67 u/L and 49.17 u/L
- ALBUMIN [1]: 4.18 G/DL and 4.33 G/DL
- ALKALINE PHOSPHATASE [1]: 398.5 u/L and 378.5 u/L
- ASPARTATE AMINOTRANSFERASE [1]: 93.17 u/L and 82.17 u/L
- BLOOD UREA NITROGEN [1]: 16 mg/dL and 15 mg/dL
- CARBON DIOXIDE [1]: 29.17 mmol/L and 34.33 mmol/L
- CHLORIDE [1]: 98.17 MEQ/L and 99.17 MEQ/L
- CHOLESTEROL [1]: 68.83 mg/dL and 71.17 mg/dL
- CREATINE PHOSPHOKINASE [1]: 467.33 u/L and 258.67 u/L
- CREATININE [1]: 0.14 mg/dL and 0.18 mg/dL
- GLUCOSE [1]: 151.67 mg/dL and 142.67 mg/dL
- LIPASE [1]: 9.33 u/L and 9 u/L
- PHOSPHORUS [1]: 11.97 mg/dL and 11.67 mg/dL
- POTASSIUM [1]: 6.43 MEQ/L and 7.13 MEQ/L
- SODIUM [1]: 140.68 MEQ/L and 142.22 MEQ/L
- TOTAL BILIRUBIN [1]: 0.18 mg/dL
- TOTAL PROTEIN [1]: 5.82 G/DL and 5.77 G/DL
- URIC ACID [1]: 1.48 mg/dL and 1.55 mg/dL
- ABSOLUTE BASOPHIL [2]: 0 CELLS/uL
- ABSOLUTE EOSINOPHIL [2]: 31 CELLS/uL and 23.33 CELLS/uL
- ABSOLUTE LYMPHOCYTE [2]: 14327.83 CELLS/uL and 14943.67 CELLS/uL
- ABSOLUTE SEGMENTED NEUTROPHIL [2]: 1321.67 CELLS/uL and 1084.33 CELLS/uL
- BASOPHIL [2]: 0%
- EOSINOPHIL [2]: 0.17%
- ERYTHROCYTE COUNT [2]: 5.79 x10E6/uL and 5.71 x10E6/uL
- HEMATOCRIT [2]: 36.1% and 35.28%
- HEMOGLOBIN [2]: 14.15 G/DL and 14.27 G/DL
- LEUKOCYTE COUNT [2]: 15.78 x10E3/uL and 16.08 x10E3/uL
- LYMPHOCYTE [2]: 90.5% and 93%
- MEAN CORPUSCULAR HEMOGLOBIN [2]: 24.48 pg and 25.02 pg
- MEAN CORPUSCULAR HEMOGLOBIN CONCENTRATION [2]: 39.22 G/DL and 40.43 G/DL
- MEAN CORPUSCULAR VOLUME [2]: 62.4 fL and 61.82 fL
- MONOCYTE [2]: 0.67% and 0.17%
- NEUTROPHIL [2]: 8.67% and 6.67%
- NUCLEATED RED BLOOD CELLS [2]: 0.17 /100WBC and 0.33 /100WBC
- PLATELET COUNT [2]: 1211.67 x10E3/uL and 1274 x10E3/uL
- ALANINE AMINOTRANSFERASE [2]: 49 u/L and 54.17 u/L
- ALBUMIN [2]: 4.27 G/DL and 4.22 G/DL
- ALKALINE PHOSPHATASE [2]: 356.67 u/L and 373.17 u/L
- ASPARTATE AMINOTRANSFERASE [2]: 90.17 u/L and 81.83 u/L
- BLOOD UREA NITROGEN [2]: 20.5 mg/dL and 16.67 mg/dL
- CARBON DIOXIDE [2]: 29.17 mmol/L and 30.33 mmol/L
- CHLORIDE [2]: 98 MEQ/L and 99 MEQ/L
- CHOLESTEROL [2]: 69.83 mg/dL and 71 mg/dL
- CREATINE PHOSPHOKINASE [2]: 312 u/L and 273.5 u/L
- CREATININE [2]: 0.21 mg/dL and 0.22 mg/dL
- GLUCOSE [2]: 149.83 mg/dL and 141.83 mg/dL
- LACTATE DEHYDROGENASE [2]: 322 u/L and 153.67 u/L
- LIPASE [2]: 10 u/L and 10.33 u/L
- PHOSPHORUS [2]: 12 mg/dL and 11.38 mg/dL
- POTASSIUM [2]: 6.75 MEQ/L and 7.08 MEQ/L
- SODIUM [2]: 142.8 MEQ/L and 142.75 MEQ/L
- TOTAL BILIRUBIN [2]: 0.17 mg/dL and 0.18 mg/dL
- TOTAL PROTEIN [2]: 6.1 G/DL
- URIC ACID [2]: 1.68 mg/dL and 1.67 mg/dL
- ABSOLUTE BASOPHIL [3]: 0 CELLS/uL
- ABSOLUTE EOSINOPHIL [3]: 71.33 CELLS/uL
- ABSOLUTE LYMPHOCYTE [3]: 10973.33 CELLS/uL
- ABSOLUTE MONOCYTE [3]: 201 CELLS/uL
- ABSOLUTE SEGMENTED NEUTROPHIL [3]: 1221 CELLS/uL
- BASOPHIL [3]: 0%
- EOSINOPHIL [3]: 0.67%
- ERYTHROCYTE COUNT [3]: 5.6 x10E6/uL
- HEMATOCRIT [3]: 35.33%
- HEMOGLOBIN [3]: 13.47 G/DL
- LEUKOCYTE COUNT [3]: 12.47 x10E3/uL
- LYMPHOCYTE [3]: 87.67%
- MEAN CORPUSCULAR HEMOGLOBIN [3]: 24.1 pg
- MEAN CORPUSCULAR HEMOGLOBIN CONCENTRATION [3]: 38.13 G/DL
- MEAN CORPUSCULAR VOLUME [3]: 63.17 fL
- MONOCYTE [3]: 1.67%
- NEUTROPHIL [3]: 10%
- NUCLEATED RED BLOOD CELLS [3]: 0 /100WBC
- PLATELET COUNT [3]: 1277.67 x10E3/uL
- ALANINE AMINOTRANSFERASE [3]: 46.67 u/L
- ALBUMIN [3]: 4.13 G/DL
- ALKALINE PHOSPHATASE [3]: 368.33 u/L
- ASPARTATE AMINOTRANSFERASE [3]: 76.33 u/L
- BLOOD UREA NITROGEN [3]: 17 mg/dL
- CARBON DIOXIDE [3]: 29.67 mmol/L
- CHLORIDE [3]: 98.33 MEQ/L
- CHOLESTEROL [3]: 76.33 mg/dL
- CREATINE PHOSPHOKINASE [3]: 222.67 u/L
- CREATININE [3]: 0.18 mg/dL
- GLUCOSE [3]: 154.33 mg/dL
- LACTATE DEHYDROGENASE [3]: 192 u/L
- LIPASE [3]: 9.67 u/L
- PHOSPHORUS [3]: 12.47 mg/dL
- POTASSIUM [3]: 6.58 MEQ/L
- SODIUM [3]: 142 MEQ/L
- TOTAL BILIRUBIN [3]: 0.2 mg/dL
- TOTAL PROTEIN [3]: 5.83 G/DL
- URIC ACID [3]: 1.5 mg/dL
- ABSOLUTE BASOPHIL [4]: 0 CELLS/uL
- ABSOLUTE EOSINOPHIL [4]: 0 CELLS/uL
